A short description of series [1]: Rate of dissolution of rebaudioside A polymorph and amorphous forms in H2O at 25° C. The class given is physicochemical.
The format of series [2] is physicochemical. The procedure: A solution of rebaudioside A (>97% pure by HPLC ) was prepared in double distilled water (12.5 gm in 50 mL, 25% concentration) by stirring the mixture at 40° C. for 5 minutes. An amorphous form of rebaudioside A was formed by immediately using the clear solution for spray drying with the Lab-Plant spray drier SD-04 instrument (Lab-Plant Ltd., West Yorkshire, U.K.). The solution was fed through the feed pump into the nozzle atomizer which atomized it into a spray of droplets with the help of a constant flow of nitrogen/air. […] This dry powder (11-12 g, H2O 6.74%) was discharged continuously from the drying chamber and was collected in a bottle.

The nature of series [3]: Sensory evaluation of sweetness linger by a panel of experts. The class given is in vivo. Details: key: 0: no sweetness linger; 1: very slight sweetness linger; 2: slight sweetness linger; 3: moderate sweetness linger; 4: moderately high sweetness linger; 5: high sweetness linger. The following applies: scale 0-5. On the procedure: Sensory evaluation of the samples prepared in Example Set G was carried out under the following protocol, similar to that described hereinabove. In this test protocol, none of the samples were swallowed. All samples were expectorated and the mouth was rinsed with water after the tasting. Immediately upon sensing maximal sweetness, the sample was expectorated, the mouth was rinsed with water and the rate of sweetness decay (“Sweetness Linger”) was measured, where attention was focused on the sweetness 3-4 min after the water rinse. After sample tasting was complete, a salty oyster cracker was chewed followed by a water rinse, and at least 5 minutes followed before tasting the next sample. The sweetness linger was rated by a panel of experts in the sensory evaluation of foods and beverages using the following scale: 0=no sweetness linger, 1=very slight sweetness linger, 2=slight sweetness linger, 3=moderate sweetness linger, 4=moderately high sweetness linger, 5=high sweetness linger.
The “Sweetness Linger” rating for sucrose observed by this protocol is defined as 0. The Sweetness Linger of a 500 ppm of REBA control sample is defined as 5. Experimental samples were tasted by the same protocol, always allowing sufficient time between samples to ensure re-equilibration of the sensory system. Re-tasting of control samples during the course of the experiment was allowed and encouraged. […]
Sweet taste improving compositions were combined with a REBA solution to determine their effect on sweetness linger, Screening of the initial sample, or further dilutions, allowed identification of concentrations which were just above-threshold, herein defined as “near-threshold concentrations.” The near-threshold additive concentrations, a 6- to 100-fold higher higher additive concentration (depending on the off-taste intensity), and a mid-level additive concentration (halfway between the near-threshold and higher additive concentration) were evaluated to determine the effect on sweetness linger of a REBA solution. […]

Consider `C=C1C[C@@]23CC[C@H]4[C@@](C)(CCC[C@@]4(C)C(=O)O[C@@H]4O[C@H](CO)[C@@H](O)[C@H](O)[C@H]4O)[C@@H]2CC[C@]1(O[C@@H]1O[C@H](CO)[C@@H](O)[C@H](O[C@@H]2O[C@H](CO)[C@@H](O)[C@H](O)[C@H]2O)[C@H]1O[C@@H]1O[C@H](CO)[C@@H](O)[C@H](O)[C@H]1O)C3` [Form 4, rebaudioside A], for which the “Rate of dissolution in H2O at 25° C.” value in series [1] was “High (>35%/5 %/5 minutes”. The “solubility in water at room temperature” value in series [2] is more than 35.0%.

On to `C=C1C[C@@]23CC[C@H]4[C@@](C)(CCC[C@@]4(C)C(=O)O[C@@H]4O[C@H](CO)[C@@H](O)[C@H](O)[C@H]4O)[C@@H]2CC[C@]1(O[C@@H]1O[C@H](CO)[C@@H](O)[C@H](O[C@@H]2O[C@H](CO)[C@@H](O)[C@H](O)[C@H]2O)[C@H]1O[C@@H]1O[C@H](CO)[C@@H](O)[C@H](O)[C@H]1O)C3` [REBA, rebaudioside A], for which the sweetness linger was 5 in series [3] (Example Set G: citric acid/potassium citrate composition equivalent to a diet lemon-lime beverage, 400 ppm REBA base, sweetness 3-4 min after water rinse) and 5 in series [3] (Example Set H: carbon-treated water with phosphoric acid (75%) to pH 2.4-2.5, 500 ppm REBA base). For the same molecule, the “Sweetness Linger rating” value in series [3] (control ratings defined for the protocol) worked out at 5.

(Values after patent publication US8524304B2, “High-potency sweetener composition with probiotics/prebiotics and compositions sweetened therewith” (The Coca-Cola Company, priority 2005, dated 2013).)
